According to PubChem BioAssay AID2060510 (Molecular Pharmacology Branch, DTP, NCI, 2025):

Tested on: 439559-082-T-J2-PDC spheroids viability
Assay: Anticancer human tumor 439559-082-T-J2-PDC patient-derived colon adenocarcinoma cell line growth inhibition [GQUAD]
Conditions: for IC50: curve of first compound; for viability, T/C: stronger effect = lower value
In short: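 Viability of tumor cells grown as complex spheroids with endothelial and stromal cells, exposed to drug combinations. Top concentration at or near clinical Cmax (else 10 microM), diluted in half-log increments.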

[1] = second compound 0.0316 µM, first compound 0.0316 µM
[2] = second compound 0.0316 µM, first compound 0.1 µM
[3] = second compound 0.0316 µM, first compound 0.316 µM
[4] = second compound 0.0316 µM, first compound 1 µM
[5] = second compound 0.0316 µM, first compound 3.16 µM
[6] = second compound 0.0316 µM, first compound 10 µM
[7] = second compound 0.1 µM, first compound 0.0316 µM
[8] = second compound 0.1 µM, first compound 0.1 µM
[9] = second compound 0.1 µM, first compound 0.316 µM
[10] = second compound 0.1 µM, first compound 1 µM
[11] = second compound 0.1 µM, first compound 3.16 µM
[12] = second compound 0.1 µM, first compound 10 µM
[13] = second compound 0.316 µM, first compound 0.0316 µM
[14] = second compound 0.316 µM, first compound 0.1 µM
[15] = second compound 0.316 µM, first compound 0.316 µM
[16] = second compound 0.316 µM, first compound 1 µM
[17] = second compound 0.316 µM, first compound 3.16 µM
[18] = second compound 0.316 µM, first compound 10 µM
[19] = second compound 1 µM, first compound 0.0316 µM
[20] = second compound 1 µM, first compound 0.1 µM
[21] = second compound 1 µM, first compound 0.316 µM
[22] = second compound 1 µM, first compound 1 µM
[23] = second compound 1 µM, first compound 3.16 µM
[24] = second compound 1 µM, first compound 10 µM
[25] = second compound 3.16 µM, first compound 0.0316 µM
[26] = second compound 3.16 µM, first compound 0.1 µM
[27] = second compound 3.16 µM, first compound 0.316 µM
[28] = second compound 3.16 µM, first compound 1 µM
[29] = second compound 3.16 µM, first compound 3.16 µM
[30] = second compound 3.16 µM, first compound 10 µM
[31] = second compound 10 µM, first compound 0.0316 µM
[32] = second compound 10 µM, first compound 0.1 µM
[33] = second compound 10 µM, first compound 0.316 µM
[34] = second compound 10 µM, first compound 1 µM
[35] = second compound 10 µM, first compound 3.16 µM
[36] = second compound 10 µM, first compound 10 µM
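Further: spheroids exposed to the agents for 7 days before readout.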
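Wherever viability, T/C is given: percent of luminescence signal in DMSO vehicle wells taken as 100% viability.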

C=CC(=O)N1CCN(c2nc(=O)n(-c3c(C)ccnc3C(C)C)c3nc(-c4c(O)cccc4F)c(F)cc23)C(C)C1 (stereo unspecified) + Cc1[nH]c2ccc(F)cc2c1-c1nc2c3cccnc3c3ncccc3c2[nH]1
IC50 (second compound 0.0316 µM): > 10000 nM | IC50 (second compound 0.1 µM): > 10000 nM | IC50 (second compound 0.316 µM): > 10000 nM | IC50 (second compound 1 µM): > 10000 nM | IC50 (second compound 3.16 µM): > 10000 nM | IC50 (second compound 10 µM): > 10000 nM | viability, T/C [1]: 106% | viability, T/C [2]: 92.6% | viability, T/C [3]: 99.3% | viability, T/C [4]: 103% | viability, T/C [5]: 109% | viability, T/C [6]: 101% | viability, T/C [7]: 103% | viability, T/C [8]: 95.5% | viability, T/C [9]: 101% | viability, T/C [10]: 95.4% | viability, T/C [11]: 112% | viability, T/C [12]: 96.5% | viability, T/C [13]: 108% | viability, T/C [14]: 95.1% | viability, T/C [15]: 102% | viability, T/C [16]: 103% | viability, T/C [17]: 104% | viability, T/C [18]: 97.8% | viability, T/C [19]: 89.3% | viability, T/C [20]: 103% | viability, T/C [21]: 93.4% | viability, T/C [22]: 93.8% | viability, T/C [23]: 100% | viability, T/C [24]: 88.7% | viability, T/C [25]: 89.1% | viability, T/C [26]: 90.5% | viability, T/C [27]: 85.6% | viability, T/C [28]: 92.4% | viability, T/C [29]: 92.1% | viability, T/C [30]: 80.2% | viability, T/C [31]: 64.6% | viability, T/C [32]: 73.1% | viability, T/C [33]: 84% | viability, T/C [34]: 76% | viability, T/C [35]: 79.3% | viability, T/C [36]: 80.3%

CC(=O)O[C@H]1C(=O)[C@@]2(C)[C@H]([C@H](OC(=O)c3ccccc3)[C@]3(O)C[C@H](OC(=O)[C@H](O)[C@@H](NC(=O)c4ccccc4)c4ccccc4)C(C)=C1C3(C)C)[C@]1(OC(C)=O)CO[C@@H]1C[C@@H]2O + Cc1[nH]c2ccc(F)cc2c1-c1nc2c3cccnc3c3ncccc3c2[nH]1
IC50 (second compound 0.0316 µM): 343 nM | IC50 (second compound 0.1 µM): 406 nM | IC50 (second compound 0.316 µM): 436 nM | IC50 (second compound 1 µM): 402 nM | IC50 (second compound 3.16 µM): 385 nM | IC50 (second compound 10 µM): 298 nM | viability, T/C [1]: 103% | viability, T/C [2]: 81.4% | viability, T/C [3]: 57.7% | viability, T/C [4]: 4.13% | viability, T/C [5]: 0.17% | viability, T/C [6]: 0.27% | viability, T/C [7]: 99% | viability, T/C [8]: 96.2% | viability, T/C [9]: 63.1% | viability, T/C [10]: 2.41% | viability, T/C [11]: 0.19% | viability, T/C [12]: 0.28% | viability, T/C [13]: 102% | viability, T/C [14]: 87.5% | viability, T/C [15]: 67.7% | viability, T/C [16]: 5.02% | viability, T/C [17]: 0.14% | viability, T/C [18]: 0.29% | viability, T/C [19]: 90.2% | viability, T/C [20]: 82.3% | viability, T/C [21]: 61.9% | viability, T/C [22]: 6.01% | viability, T/C [23]: 0.1% | viability, T/C [24]: 0.41% | viability, T/C [25]: 61.7% | viability, T/C [26]: 76.5% | viability, T/C [27]: 58.6% | viability, T/C [28]: 6.91% | viability, T/C [29]: 0.18% | viability, T/C [30]: 0.37% | viability, T/C [31]: 88.9% | viability, T/C [32]: 63.2% | viability, T/C [33]: 55.9% | viability, T/C [34]: 9.43% | viability, T/C [35]: 0.43% | viability, T/C [36]: 0.5%

CC[C@@]1(O)C(=O)OCc2c1cc1n(c2=O)Cc2cc3c(CN(C)C)c(O)ccc3nc2-1 + Cc1[nH]c2ccc(F)cc2c1-c1nc2c3cccnc3c3ncccc3c2[nH]1
IC50 (second compound 0.0316 µM): > 316 nM | IC50 (second compound 0.1 µM): > 316 nM | IC50 (second compound 0.316 µM): > 316 nM | IC50 (second compound 1 µM): > 316 nM | IC50 (second compound 3.16 µM): > 316 nM | IC50 (second compound 10 µM): > 316 nM | viability, T/C (second compound 0.0316 µM, first compound 0.000999 µM): 99.4% | viability, T/C (second compound 0.0316 µM, first compound 0.00316 µM): 109% | viability, T/C (second compound 0.0316 µM, first compound 0.00999 µM): 94.5% | viability, T/C [1]: 99.7% | viability, T/C (second compound 0.0316 µM, first compound 0.0999 µM): 96.3% | viability, T/C [3]: 82.4% | viability, T/C (second compound 0.1 µM, first compound 0.000999 µM): 101% | viability, T/C (second compound 0.1 µM, first compound 0.00316 µM): 102% | viability, T/C (second compound 0.1 µM, first compound 0.00999 µM): 99.5% | viability, T/C [7]: 96.2% | viability, T/C (second compound 0.1 µM, first compound 0.0999 µM): 103% | viability, T/C [9]: 83% | viability, T/C (second compound 0.316 µM, first compound 0.000999 µM): 98.1% | viability, T/C (second compound 0.316 µM, first compound 0.00316 µM): 92.1% | viability, T/C (second compound 0.316 µM, first compound 0.00999 µM): 89.1% | viability, T/C [13]: 99.2% | viability, T/C (second compound 0.316 µM, first compound 0.0999 µM): 90.5% | viability, T/C [15]: 83.3% | viability, T/C (second compound 1 µM, first compound 0.000999 µM): 94% | viability, T/C (second compound 1 µM, first compound 0.00316 µM): 101% | viability, T/C (second compound 1 µM, first compound 0.00999 µM): 98.6% | viability, T/C [19]: 84.9% | viability, T/C (second compound 1 µM, first compound 0.0999 µM): 93.3% | viability, T/C [21]: 83.6% | viability, T/C (second compound 3.16 µM, first compound 0.000999 µM): 81.8% | viability, T/C (second compound 3.16 µM, first compound 0.00316 µM): 81.2% | viability, T/C (second compound 3.16 µM, first compound 0.00999 µM): 88.9% | viability, T/C [25]: 78.2% | viability, T/C (second compound 3.16 µM, first compound 0.0999 µM): 86.2% | viability, T/C [27]: 73.5% | viability, T/C (second compound 10 µM, first compound 0.000999 µM): 86.4% | viability, T/C (second compound 10 µM, first compound 0.00316 µM): 78.7% | viability, T/C (second compound 10 µM, first compound 0.00999 µM): 75.3% | viability, T/C [31]: 76% | viability, T/C (second compound 10 µM, first compound 0.0999 µM): 90.1% | viability, T/C [33]: 56.9%
